Here are results for nine compounds from ChEMBL document CHEMBL1201862, “PubChem BioAssay data set” (2004).

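These data come from cells grown in 96-well plates and exposed to compound for 48 hours at five concentrations. GI50 = concentration required for 50% inhibition of growth.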 Active and inactive are the calls of the source. Cut-off read from the data, not from the text of the source: active = GI50 up to about 1.1 µM and inactive = higher.

Test systems include SNB-75; OVCAR-8; OVCAR-3; UACC-62; OVCAR-4; M14; A549; HCC 2998; CCRF-CEM; SF-268; MOLT-4; SF-295; SK-MEL-2; UO-31; HL-60; NCI-H522; Malme-3M.
Common to all, as to experiment: growth of human tumour cells (NCI), 48 h

Regarding `N=c1oc2c(O)c(O)ccc2cc1C(N)=O`, the GI50 in the assay with SNB-75 is 30.2 µM (inactive); in the assay on OVCAR-8 it was 24.5 µM (inactive); in the assay on OVCAR-3 it was 46.8 µM (inactive); in the assay on UACC-62, 35.1 µM (inactive); in the assay with OVCAR-4 it was 17.5 µM (inactive); in the assay with M14 it was 43 µM (inactive). In addition, the GI50 with A549 was > 100 µM (inactive); in the assay on HCC 2998, > 100 µM (inactive); in the assay on CCRF-CEM, 21.6 µM (inactive); in the assay on SF-268 it was 96.4 µM (inactive); with MOLT-4, 34 µM (inactive); in the assay with SF-295, 33.6 µM (inactive). Besides, the GI50 with SK-MEL-2 is 48.2 µM (inactive); in the assay with UO-31, > 100 µM (inactive); in the assay on HL-60, > 10 µM (inactive); in the assay with NCI-H522, 58.6 µM (inactive); with Malme-3M it was 84.3 µM (inactive).

In the case of `Cc1ccc(NC(=O)CCc2nnc(N)o2)cc1`, the GI50 in the assay on SNB-75, in the assay with OVCAR-8, in the assay on OVCAR-3, in the assay on UACC-62, in the assay with OVCAR-4 and in the assay with M14 was > 100 µM (inactive) throughout. The GI50 with A549, with HCC 2998, with CCRF-CEM, in the assay with SF-268, in the assay on MOLT-4 and with SF-295 was > 100 µM (inactive) each time. Also, the GI50 was > 100 µM (inactive) in the assay on SK-MEL-2; > 100 µM (inactive) with UO-31; > 67.3 µM (inactive) in the assay with HL-60; > 100 µM (inactive) with NCI-H522; > 100 µM (inactive) with Malme-3M.

Take `Nc1ncnc2c1ncn2C1OC(CSC(F)F)C(O)C1O` (configuration not stated): the GI50 in the assay on SNB-75, with OVCAR-8, in the assay with OVCAR-3, in the assay with UACC-62, in the assay with OVCAR-4 and in the assay on M14 was > 100 µM (inactive) each time. In addition, the GI50 in the assay on A549, in the assay with HCC 2998, in the assay on CCRF-CEM, in the assay with SF-268, in the assay with MOLT-4 and with SF-295 was > 100 µM (inactive) throughout. In addition, the GI50 in the assay on SK-MEL-2 is > 100 µM (inactive); in the assay on UO-31 it was > 100 µM (inactive); in the assay with HL-60, > 100 µM (inactive); in the assay with NCI-H522, 86.3 µM (inactive); in the assay with Malme-3M, > 100 µM (inactive).

For `CC(=O)Nc1ccc(C(=O)NN2C(=O)C(Cl)C2c2ccc([N+](=O)[O-])cc2)cc1` (configuration not stated), the GI50 in the assay on SNB-75, with OVCAR-8, with OVCAR-3, in the assay with UACC-62, in the assay with OVCAR-4 and with M14 was > 100 µM (inactive) in each case. In addition, the GI50 in the assay on A549, in the assay with CCRF-CEM, with SF-268, in the assay on MOLT-4, in the assay with SF-295 and with SK-MEL-2 was > 100 µM (inactive) each time. Further, the GI50 in the assay with UO-31, in the assay on HL-60, in the assay with NCI-H522 and in the assay with Malme-3M was > 100 µM (inactive) throughout.

In the case of `COc1ccc(/C(Cl)=C(\C=O)c2ccc(Br)cc2)cc1OC`, the GI50 was 2.81 µM (inactive) in the assay on SNB-75; 31.9 µM (inactive) with OVCAR-8; > 100 µM (inactive) in the assay on OVCAR-3; 33.7 µM (inactive) in the assay on UACC-62; > 100 µM (inactive) with OVCAR-4; > 100 µM (inactive) in the assay on M14. For the same compound, the GI50 with A549 is 62.5 µM (inactive); in the assay with HCC 2998, > 100 µM (inactive); with SF-268, 23.2 µM (inactive); with MOLT-4 it was 4.27 µM (inactive); in the assay on SF-295 it was 19.8 µM (inactive); in the assay with SK-MEL-2, 16.5 µM (inactive). Besides, the GI50 is > 100 µM (inactive) in the assay with UO-31, 17 µM (inactive) with HL-60, 51.8 µM (inactive) with NCI-H522 and 47.8 µM (inactive) in the assay with Malme-3M.

In the case of `O=S1(=O)CS(=O)(=O)OCCCCCO1`, the GI50 in the assay with SNB-75, in the assay on OVCAR-8, with UACC-62, with OVCAR-4, in the assay with M14 and with A549 was > 100 µM (inactive) throughout. The GI50 with HCC 2998, in the assay with CCRF-CEM, in the assay with SF-268, in the assay on SK-MEL-2, in the assay with UO-31 and in the assay on NCI-H522 was > 100 µM (inactive) each time. Further, in the assay with Malme-3M, the GI50 is > 100 µM (inactive).

Regarding `Cc1c(C(=O)c2ccccc2C(=O)O)c2ccccc2n1C`, the GI50 in the assay on SNB-75, in the assay on OVCAR-8, with OVCAR-3, in the assay with UACC-62, in the assay on OVCAR-4 and in the assay on M14 was > 100 µM (inactive) in each case. Besides, the GI50 in the assay on A549, with HCC 2998, with CCRF-CEM, in the assay on MOLT-4, in the assay with SF-295 and in the assay with SK-MEL-2 was > 100 µM (inactive) throughout. For the same compound, the GI50 in the assay on UO-31, with HL-60 and in the assay with Malme-3M was > 100 µM (inactive) each time.

`CC(=O)OC1C[C@H]2C(OC(=O)c3ccccc3)C3C4(OC(C)=O)COC4C[C@H](OC(C)=O)[C@@]3(C)C(OC(C)=O)[C@H](OC(C)=O)C(=C1C)C2(C)C` (some centres not stated): the GI50 with SNB-75 is 14.3 µM (inactive); in the assay with OVCAR-8, 41.2 µM (inactive); with OVCAR-3 it was 64.7 µM (inactive); in the assay on UACC-62, 77.1 µM (inactive); with OVCAR-4 it was 36.7 µM (inactive); with M14, 23.2 µM (inactive). In addition, the GI50 in the assay with A549 is 31.2 µM (inactive); in the assay on CCRF-CEM, 36.7 µM (inactive); in the assay with SF-268, 24.9 µM (inactive); in the assay with MOLT-4, 20.1 µM (inactive); in the assay with SF-295, 33.5 µM (inactive); in the assay on SK-MEL-2, 33.3 µM (inactive). Moreover, the GI50 is 24.9 µM (inactive) in the assay on UO-31, 16.7 µM (inactive) in the assay on HL-60, 20.4 µM (inactive) with NCI-H522 and 71.8 µM (inactive) in the assay with Malme-3M.

With `Cc1c2cc[n+](C)cc2c(C)c2c1[nH]c1ccc(Oc3ccccc3)cc12`, the GI50 was 0.44 µM (active) with SNB-75; 0.553 µM (active) with OVCAR-8; 1.6 µM (inactive) in the assay with OVCAR-3; 1.51 µM (inactive) in the assay with UACC-62; 1.4 µM (inactive) with OVCAR-4; 4.48 µM (inactive) with M14. Further, the GI50 is 0.324 µM (active) with A549; 2.61 µM (inactive) in the assay with HCC 2998; 1.19 µM (inactive) in the assay on CCRF-CEM; 0.738 µM (active) in the assay on SF-268; 2.21 µM (inactive) with MOLT-4; 0.311 µM (active) in the assay on SF-295. The GI50 with SK-MEL-2 is 1.1 µM (active); in the assay with UO-31 it was 7.29 µM (inactive); in the assay with Malme-3M, 1.76 µM (inactive).
